This is an account of results in patent publication US20040082635A1, “Fused cyclic compounds and medicinal use thereof” (priority 2001, published 2004).

In this test the target is T1, HCV polymerase (Hepatitis C virus genotype 1b, UniProt P26663).
T1 construct: a region encoding NS5B (591 amino acids; J Virol 1991 Mar, 65(3), 1105-13) was amplified by PCR; 6 His (N); made in house; host or cells: Escherichia coli
T1 sequence (P26663 2420-3010): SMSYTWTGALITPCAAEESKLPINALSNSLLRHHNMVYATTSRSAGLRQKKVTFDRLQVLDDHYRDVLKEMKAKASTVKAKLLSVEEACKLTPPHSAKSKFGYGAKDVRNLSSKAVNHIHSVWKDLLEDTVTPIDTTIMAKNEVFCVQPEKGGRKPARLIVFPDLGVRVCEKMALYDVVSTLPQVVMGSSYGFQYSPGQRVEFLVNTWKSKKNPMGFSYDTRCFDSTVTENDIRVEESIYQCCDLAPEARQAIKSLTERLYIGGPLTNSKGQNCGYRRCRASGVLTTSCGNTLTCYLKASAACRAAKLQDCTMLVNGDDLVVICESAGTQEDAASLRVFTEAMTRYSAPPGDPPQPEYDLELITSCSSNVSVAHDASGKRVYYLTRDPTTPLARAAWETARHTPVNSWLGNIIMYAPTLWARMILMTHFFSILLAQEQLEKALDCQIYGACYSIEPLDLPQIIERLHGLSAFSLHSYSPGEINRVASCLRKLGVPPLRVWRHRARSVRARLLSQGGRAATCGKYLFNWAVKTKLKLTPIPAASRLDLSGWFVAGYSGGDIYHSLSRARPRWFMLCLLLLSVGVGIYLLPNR
In words: biochemical. The settings on record: read-out: HCV polymerase inhibitory activity IC50.
Regarding `CCCOc1cccc(Oc2ccc(-c3nc4cc(C(=O)O)ccc4n3C3CCCCC3)cc2)c1` [Example 111, 1-cyclohexyl-2-[4-(3-propoxyphenoxy)phenyl]benzimidazole-5-carboxylic acid], the IC50 worked out at 140 nM.

On to `CC(C)=CCOc1ccccc1Oc1ccc(-c2nc3cc(C(=O)O)ccc3n2C2CCCCC2)cc1` [Example 112, 1-cyclohexyl-2-{4-[2-(3-methyl-2-butenyloxy)phenoxy]phenyl}-benzimidazole-5-carboxylic acid], for which the IC50 is 110 nM.

Take `CC(C)=CCOc1cccc(Oc2ccc(-c3nc4cc(C(=O)O)ccc4n3C3CCCCC3)cc2)c1` [Example 113, 1-cyclohexyl-2-{4-[3-(3-methyl-2-butenyloxy)phenoxy]phenyl}-benzimidazole-5-carboxylic acid]: the IC50 came to 71 nM.

In the case of `CC(C)CCOc1ccccc1Oc1ccc(-c2nc3cc(C(=O)O)ccc3n2C2CCCCC2)cc1` [Example 114, 1-cyclohexyl-2-[4-(2-isopentyloxyphenoxy)phenyl]benzimidazole-5-carboxylic acid], the IC50 turned out to be 560 nM.

For `CC(C)CCOc1cccc(Oc2ccc(-c3nc4cc(C(=O)O)ccc4n3C3CCCCC3)cc2)c1` [Example 115, 1-cyclohexyl-2-[4-(3-isopentyloxyphenoxy)phenyl]benzimidazole-5-carboxylic acid], the IC50 turned out to be 170 nM.

On to `O=C(O)c1ccc2c(c1)nc(-c1ccc(OCc3ccccc3-c3ccc(C(F)(F)F)cc3)cc1)n2C1CCCCC1` [Example 117, 1-cyclohexyl-2-{4-[2-(4-trifluoromethylphenyl)benzyloxy]-phenyl}benzimidazole-5-carboxylic acid], for which the IC50 stood at 75 nM.

`O=C(O)c1ccc2c(c1)nc(-c1ccc(OC(c3ccc(Cl)cc3)c3ccc(Cl)cc3)cc1)n2C1CCCCC1` [Example 118, 2-{4-[bis(4-chlorophenyl)methoxy]phenyl}-1-cyclohexylbenzimidazole-5-carboxylic acid]: the IC50 is 140 nM.

In the case of `COc1ccc(CCOc2ccc(-c3nc4cc(C(=O)O)ccc4n3C3CCCCC3)cc2)cc1` [Example 119, 1-cyclohexyl-2-{4-[2-(4-methoxyphenyl)ethoxy]phenyl}-benzimidazole-5-carboxylic acid], the IC50 is 130 nM.

For `COc1cccc(CCOc2ccc(-c3nc4cc(C(=O)O)ccc4n3C3CCCCC3)cc2)c1` [Example 121, 1-cyclohexyl-2-{4-[2-(3-methoxyphenyl)ethoxy]phenyl}-benzimidazole-5-carboxylic acid], the IC50 came out at 190 nM.

Take `O=C(O)c1ccc2c(c1)nc(-c1ccc(OCc3ccccc3)cc1)n2C1CCCCCC1` [Example 122, 2-(4-benzyloxyphenyl)-1-cycloheptylbenzimidazole-5-carboxylic acid]: the IC50 was found to be 510 nM.

Take `O=C(O)c1ccc2c(c1)nc(-c1ccc(Oc3ccccc3OCCc3ccccc3)cc1)n2C1CCCCC1` [Example 123, 1-cyclohexyl-2-[4-(2-phenethyloxyphenoxy)phenyl]benzimidazole-5-carboxylic acid]: the IC50 is 100 nM.

In the case of `O=C(O)c1ccc2c(c1)nc(-c1ccc(Oc3cccc(OCCc4ccccc4)c3)cc1)n2C1CCCCC1` [Example 124, 1-cyclohexyl-2-[4-(3-phenethyloxyphenoxy)phenyl]benzimidazole-5-carboxylic acid], the IC50 is 91 nM.

Take `O=C(O)c1ccc2c(c1)nc(-c1ccc(OCC(c3ccccc3)c3ccccc3)cc1)n2C1CCCCC1` [Example 125, 1-cyclohexyl-2-[4-(2,2-diphenylethoxy)phenyl]benzimidazole-5-carboxylic acid]: the IC50 came to 120 nM.

On to `O=C(O)c1ccc2c(c1)nc(-c1ccc(Oc3ccccc3Oc3ccccc3)cc1)n2C1CCCCC1` [Example 128, 1-cyclohexyl-2-[4-(2-phenoxyphenoxy)phenyl]benzimidazole-5-carboxylic acid], for which the IC50 turned out to be 140 nM.
